In experiment [1] the target is T1, GST-tagged Tankyrase-1 (1023-1327 aa) (Homo sapiens, UniProt O95271).
T1 construct: GST-tagged Tankyrase-1 (1023-1327 aa)
Briefly: Tankyrase 1 autoparsylation assay (HTRF enzyme assay). Type of experiment: biochemical. In short, it runs like this: (§1)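 ~250 nM GST-tagged enzyme with 5 μM biotin-NAD in HEPES/Mg/DTT buffer pH 7.7, 10 compound concentrations, 90 min at 30 °C; EDTA stop. Eu-anti-GST/streptavidin-Xlent HTRF read (665/615 ratio) after 1 h RT. IC50 relative to inhibitor-free reaction and 5 μM XAV-939 as zero.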
In general terms: In TR-FRET formats the signal depends on donor and acceptor labels being close together.

Experiment [2] concerns the target T2, GST-tagged Tankyrase-2 (873-1166 aa) (Homo sapiens, UniProt Q9H2K2).
T2 construct: GST-tagged Tankyrase-2 (873-1166 aa)
Briefly: Tankyrase 2 autoparsylation assay (HTRF enzyme assay). Format: biochemical. In short, it runs like this: as §1

The target of experiment [3] is T3, His-tagged Parp-1 (Homo sapiens, UniProt P09874).
T3 construct: purchased Enzo Life Sciences GmbH
T3 sequence (P09874 whole entry): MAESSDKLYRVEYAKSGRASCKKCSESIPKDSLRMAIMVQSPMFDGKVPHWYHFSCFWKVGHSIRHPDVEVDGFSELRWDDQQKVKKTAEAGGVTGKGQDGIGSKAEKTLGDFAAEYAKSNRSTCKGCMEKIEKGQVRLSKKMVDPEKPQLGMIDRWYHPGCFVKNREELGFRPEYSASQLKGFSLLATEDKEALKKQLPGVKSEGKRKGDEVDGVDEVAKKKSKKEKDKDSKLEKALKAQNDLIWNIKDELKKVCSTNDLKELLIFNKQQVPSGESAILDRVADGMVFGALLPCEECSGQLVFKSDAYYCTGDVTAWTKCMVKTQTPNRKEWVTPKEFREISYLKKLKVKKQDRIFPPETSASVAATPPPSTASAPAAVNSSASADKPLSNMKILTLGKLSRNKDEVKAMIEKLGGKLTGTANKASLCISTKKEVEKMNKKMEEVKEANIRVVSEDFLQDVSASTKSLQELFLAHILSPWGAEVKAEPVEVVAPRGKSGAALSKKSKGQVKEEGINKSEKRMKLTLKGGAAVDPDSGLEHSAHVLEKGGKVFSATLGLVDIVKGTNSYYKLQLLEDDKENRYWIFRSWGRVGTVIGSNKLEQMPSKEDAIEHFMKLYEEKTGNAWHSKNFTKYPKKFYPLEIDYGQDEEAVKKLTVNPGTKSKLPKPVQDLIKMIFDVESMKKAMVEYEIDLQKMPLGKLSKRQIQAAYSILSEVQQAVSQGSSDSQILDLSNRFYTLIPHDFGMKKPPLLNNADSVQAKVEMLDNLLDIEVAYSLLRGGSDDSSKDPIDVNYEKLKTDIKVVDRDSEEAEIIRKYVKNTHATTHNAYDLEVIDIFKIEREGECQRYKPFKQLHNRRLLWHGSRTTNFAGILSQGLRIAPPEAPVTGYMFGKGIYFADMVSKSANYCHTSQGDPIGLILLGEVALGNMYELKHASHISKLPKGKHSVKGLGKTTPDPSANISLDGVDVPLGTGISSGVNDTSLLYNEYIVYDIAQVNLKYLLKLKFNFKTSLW
As to the kind of experiment: PARP-1 autoparsylation assay (HTRF). Format: biochemical. To be noted: PARP-1 autoparsylation HTRF assay. The text has this:
Description of the PARP1 Assay
Biochemical Activity Testing of PARP-1: Autoparsylation Assay
The autoparsylation assay is run in two steps: the enzymatic reaction in which
His-tagged Parp-1 transfers biotinylated ADP-ribose/ADP-ribose to itself from biotinylated NAD/NAD as co-substrate and the detection reaction where a time resolved FRET between cryptate labelled anti-His antibody bound to the His tag of the enzyme and Xlent® labelled-streptavidin bound the biotin-parsylation residue is analysed. The autoparsylation activity is detectable directly via the increase in HTRF signal.
The autoparsylation assay is performed as 384-well HTRF® (Cisbio, Codolet, France) assay format in Greiner low volume nb 384-well microtiter plates. 35 nM His-tagged Parp-1 (human, recombinant, Enzo Life Sciences GmbH, Lörrach, Germany) and a mixture of 125 nM bio-NAD (Biolog, Life science Inst., Bremen, Germany) and 800 nM NAD as co-substrate are incubated in a total volume of 6 μl (100 mM Tris/HCl, 4 mM Mg-chloride, 0.01% IGEPAL® CA630, 1 mM DTT, 0.5% DMSO, pH 8, 13 ng/μl activated DNA (BPS Bioscience, San Diego, US)) in the absence or presence of the test compound (10 dilution concentrations) for 150 min at 23° C. The reaction is stopped by the addition of 4 μl of the Stop/detection solution (70 nM SA-Xlent® (Cisbio, Codolet, France), 2.5 nM Anti-His-K® (Eu-labelled anti-His, Cisbio, Codolet, France) in 50 mM HEPES, 400 mM KF, 0.1% BSA, 20 mM EDTA, pH 7.0). After 1 h incubation at room temperature the HTRF is measured with an Envision multimode reader (Perkin Elmer LAS Germany GmbH) at excitation wavelength 340 nm (laser mode) and emission wavelengths 615 nm and 665 nm. The ratio of the emission signals is determined. The full value used is the inhibitor-free reaction. The pharmacological zero value used is Olaparib (LClabs, Woburn, US) in a final concentration of 1 μM. The inhibitory values (IC50) are determined using either the program Symyx Assay Explorer® or Condosseo® from GeneData.

Experiment [4] deals with T4, GST-tagged Tnks-1 (1023-1327 aa) (Homo sapiens, UniProt O95271).
T4 construct: GST-tagged Tnks-1 (1023-1327 aa, prepared in-house); made in house
T4 sequence (O95271 1023-1327): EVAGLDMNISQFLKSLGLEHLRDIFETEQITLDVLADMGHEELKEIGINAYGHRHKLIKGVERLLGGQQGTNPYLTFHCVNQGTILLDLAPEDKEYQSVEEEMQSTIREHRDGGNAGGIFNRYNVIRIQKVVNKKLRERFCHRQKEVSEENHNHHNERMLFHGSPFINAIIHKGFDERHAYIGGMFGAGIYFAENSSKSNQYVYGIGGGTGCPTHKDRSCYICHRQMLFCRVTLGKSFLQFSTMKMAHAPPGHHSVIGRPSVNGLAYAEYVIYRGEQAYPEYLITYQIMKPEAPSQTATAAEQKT
Briefly: TNKS1 activity ELISA (autoparsylation assay). Format: biochemical. As for the experimental part:
(§2) Description of the TNKS1 and TNKS2 ELISA Assay
(§3) Biochemical Activity Testing of TNKS 1 and 2: Activity ELISA (Autoparsylation Assay)
(§4) For analysis of autoparsylation activity of TNKS 1 and 2 an activity ELISA is performed: In the first step GST tagged TNKS is captured on a Glutathione coated plate. Then the activity assay with biotinylated NAD is performed in the absence/presence of the compounds. During the enzymatic reaction GST tagged TNKS transfers biotinylated ADP-ribose to itself from biotinylated NAD as co-substrate. For the detection streptavidin-HRP conjugate is added that binds to the biotinylated TNKS and is thereby captured to the plates. The amount of biotinylated resp. autoparsylated TNKS is detected with a luminescence substrate for HRP. The level of the luminescence signal correlates directly with the amount of autoparsylated TNKS and therefore with activity of TNKS.
(§5) The activity ELISA is performed in 384 well Glutathione coated microtiter plates (Express capture Glutathione coated plate, Biocat, Heidelberg, Germany). The plates are pre-equilibrated with PBS. Then the plates are incubated with 50 μl 20 ng/well GST-tagged Tnks-1 (1023-1327 aa, prepared in-house), respectively GST-tagged Tnks-2 (873-1166 aa, prepared in-house) in assay buffer (50 mM HEPES, 4 mM Mg-chloride, 0.05% Pluronic F-68, 2 mM DTT, pH 7.7) overnight at 4° C. The plates are washed 3 times with PBS-Tween-20. The wells are blocked by incubation at room temperature for 20 minutes with 50 μl blocking buffer (PBS, 0.05% Tween-20, 0.5% BSA). Afterwards the plates are washed 3 times with PBS-Tween-20. The enzymatic reaction is performed in 50 μl reaction solution (50 mM HEPES, 4 mM Mg-chloride, 0.05% Pluronic F-68, 1.4 mM DTT, 0.5% DMSO, pH 7.7) with 10 μM bio-NAD (Biolog, Life science Inst., Bremen, Germany) as co-substrate in the absence or presence of the test compound (10 dilution concentrations) for 1 hour at 30° C. The reaction is stopped by 3 times washing with PBS-Tween-20. For the detection 50 μl of 20 ng/μl Streptavidin, HRP conjugate (MoBiTec, Göttingen, Germany) in PBS/0.05% Tween-20/0.01% BSA are added and the plates are incubated for 30 minutes at room temperature. After three times washing with PBS-Tween-20 50 μl of SuperSignal ELISA Femto Maximum sensitivity substrate solution (ThermoFisherScientific (Pierce), Bonn, Germany) are added. Following a 1 minute incubation at room temperature luminescence signals are measured with an Envision multimode reader (Perkin Elmer LAS Germany GmbH) at 700 nm. The full value used is the inhibitor-free reaction. The pharmacological zero value used is XAV-939 (Tocris) in a final concentration of 5 μM. The inhibitory values (1050) are determined using either the program Symyx Assay Explorer® or Condosseo® from GeneData.

Experiment [5] addresses T5, GST-tagged Tnks-2 (873-1166 aa) (Homo sapiens, UniProt Q9H2K2).
T5 construct: GST-tagged Tnks-2 (873-1166 aa, prepared in-house); made in house
Briefly: TNKS2 activity ELISA (autoparsylation assay). Type of experiment: biochemical. How it is done:
as §2, §3, §4, §5
For orientation: ELISA stands for enzyme-linked immunosorbent assay.

For experiment [6], the system named is DLD-1-cancer cells. As to conditions: literature (Huang et al., 2009); cited from earlier work.
Experiment [7] relates to β-catenin. As to conditions: literature (Huang et al., 2009); by increasing AXIN1 and AXIN2 levels; cited from earlier work.

T5 sequence (Q9H2K2 873-1166): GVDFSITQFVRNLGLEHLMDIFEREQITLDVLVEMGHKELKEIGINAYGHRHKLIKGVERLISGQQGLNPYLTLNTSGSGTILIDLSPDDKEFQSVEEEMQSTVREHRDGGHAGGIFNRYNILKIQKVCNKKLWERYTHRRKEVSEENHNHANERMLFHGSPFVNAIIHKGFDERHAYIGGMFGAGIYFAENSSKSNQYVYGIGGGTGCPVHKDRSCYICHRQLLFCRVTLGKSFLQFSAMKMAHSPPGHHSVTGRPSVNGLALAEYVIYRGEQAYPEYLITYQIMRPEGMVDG
T1 sequence (O95271 1023-1327): as the sequence (O95271 1023-1327) above
T2 sequence (Q9H2K2 873-1166): as the sequence (Q9H2K2 873-1166) above

Usually IC50 stands for the point on the concentration scale where inhibition reaches its midpoint. `Cc1cc2c(=O)[nH]c(-c3cnn(C(C)(C)C)c3)cn2c1` [Compound A57, 3-(1-tert-butyl-1H-pyrazol-4-yl)-7-methyl-2H-pyrrolo[1,2-a]pyrazin-1-one]: the concentration for half-maximal inhibition (IC50) was 0.3 to 3 µM in experiment [1]; 0.3 to 3 µM in experiment [2]; 0.3 to 3 µM in experiment [3]; below 0.3 µM in experiment [4]; 0.3 to 3 µM in experiment [5].

As to `O=c1[nH]c(-c2ccc(C3(O)CCCC3)cc2)cn2cc(F)cc12` [Compound A85, 7-fluoro-3-[4-(1-hydroxy-cyclopentyl)-phenyl]-2H-pyrrolo[1,2-a]pyrazin-1-one], the values for the half-maximal inhibitory concentration (IC50) in experiment [3], in experiment [4] and in experiment [5] were 0.3 to 3 µM, below 0.3 µM and below 0.3 µM, respectively.

In the case of `Oc1nc(-c2ccc(C(F)(F)F)cc2)nc2c1CSCC2` [XAV939], the “growth of DLD-1-cancer cells” value in experiment [6] is reported as “inhibits growth”. Also, in experiment [7], the “Wnt-stimulated accumulation of β-catenin” value is “blocked Wnt-stimulated accumulation of β-catenin”.

(Values after patent US9120805B2, “Substituted pyrrolo[1,2-A]pyrazin-1-ones and pyrazolo[1,5-A]pyrazin-4-ones as inhibitors of tankyrase and poly(ADP-ribose)polymerase activity” (Merck Patent GmbH, priority 2012, dated 2015).)
